Experimental data: patent US12698293B2, “Crystal form of macrocyclic compound, and preparation method therefor and use thereof” (HITGEN INC., priority 2021, dated 2026)
One block for each compound: values may come before it.

Assays:
[1] = Hygroscopicity test by dynamic vapor sorption (DVS); type: physicochemical; conditions: for hygroscopicity characteristic: DVS, 0-80% relative humidity, China Pharmacopoeia 2020 classes; for weight change with increasing humidity (DVS): between 0-80% relative humidity
Method: The crystal form and amorphous form of the macrocyclic compound provided by the present invention were evaluated for hygroscopicity, and the test was performed using a dynamic vapor sorption to obtain data. The description of the hygroscopicity characteristic and the definition of the weight gain due to hygroscopicity (as shown in Table 2) are referred to China Pharmacopoeia (2020 edition) Part Four General Principles 9103.
The adsorption-desorption isotherm of the crystal form prepared in example 1 is shown in FIG. 5, wherein the abscissa is relative humidity and the ordinate is weight (%). […] The adsorption-desorption isotherm of the crystal form prepared in comparative example 1 is shown in FIG. 6, wherein the abscissa is relative humidity and the ordinate is weight (%).

[2] = Stability test on influence factors (high temperature, high humidity, light), purity by HPLC; type: physicochemical; conditions: for change of purity / impurity content during the experimental period (in words): high temperature, high humidity and light, 30 days
Method: The crystal form and the amorphous form of the macrocyclic compound provided by the present invention were subjected to the stability test on influence factors according to China Pharmacopoeia (2020 edition) Part Four General Principles 9103. Specifically, the crystal form of a macrocyclic compound prepared in example 1 and the amorphous form of the macrocyclic compound prepared in comparative example 1 were placed in an open space under the respective conditions of high temperature (60±2° C.), high humidity (90%±5% RH, 25±2° C.) and light (4500±500 Lx) for 30 days to test stability. The observation period was 30 days. The tested samples were taken on days 5, 10 and 30, and analyzed for purity by high performance liquid chromatography.

[3] = Accelerated stability test, crystal form checked by XRPD; type: physicochemical; conditions: 40 ± 2° C., relative humidity 75 ± 5%, seal
Method: The crystal form of the macrocyclic compound provided by the present invention was subjected to accelerated stability test to examine stability according to China Pharmacopoeia (2020 edition) Part Four General Principles 9103. Specifically, the crystal form was placed in a sealed space at temperature of 40±2° C. and a relative humidity of 75±5% for 6 months. The sample to be tested was taken at months 1, 2, 3 and 6, and detected using X-ray Powder Diffractometer.

[4] = Pharmacokinetic test in beagle dogs, plasma concentration after oral gavage; type: in vivo; conditions: dog, male beagle dogs, oral single gavage, 8 mg/kg
Method: After grouped (3 Beagle dogs per group), male beagle dogs were orally administered with the crystal form of the macrocyclic compound provided by the present invention via single gavage at a dose of 8 mg/kg. The plasma was collected at 0.25 h, 0.5 h, 1.0 h, 2.0 h, 4.0 h, 6.0 h, 8.0 h, and 24 h after the administration. A standard curve with appropriate range was established based on the concentration of the tested sample to calculate the concentration of the tested sample in plasma. The quantitative analysis was carried out and the pharmacokinetic parameters were calculated for the tested sample. The results are shown in Table 5, wherein Cmax represents the peak concentration, AUC0-last represents the area below the drug-time curve, Tmax represents peak time of the drug and T1/2 represents the half-life of the drug.

[5] = listed as comparative example 1

hygroscopicity characteristic [1, 5]: very hygroscopic (not less than 15%)
weight change with increasing humidity (DVS) [1, 5]: about 21.6%
Sample purity (%) ([2]; High humidity (90%±5% RH, 25±2° C.), open, day 5, listed as comparative example 1): 97.9%
Sample purity (%) ([2]; High humidity (90%±5% RH, 25±2° C.), open, day 10, listed as comparative example 1): 98.0%
Sample purity (%) ([2]; High humidity (90%±5% RH, 25±2° C.), open, day 30, listed as comparative example 1): 97.7%
Sample purity (%) ([2]; High temperature (60±2° C.), open, day 5, listed as comparative example 1): 97.6%
Sample purity (%) ([2]; High temperature (60±2° C.), open, day 10, listed as comparative example 1): 97.1%
Sample purity (%) ([2]; High temperature (60±2° C.), open, day 30, listed as comparative example 1): 96.9%
Sample purity (%) ([2]; Light (4500±500 Lx), open, day 5, listed as comparative example 1): 97.4%
Sample purity (%) ([2]; Light (4500±500 Lx), open, day 10, listed as comparative example 1): 96.8%
Sample purity (%) ([2]; Light (4500±500 Lx), open, day 30, listed as comparative example 1): 96.4%
Sample purity (%) ([2]; day 0, listed as comparative example 1): 98.1%
change of purity / impurity content during the experimental period (in words) [2, 5]: decrease in purity
Compound: C[C@@H]1CCOc2ccc(F)cc2[C@H]2CCCN2c2ccc3ncc(C#N)c(c3n2)N1 [Comparative Example 1, (6R,16R)-9-fluoro-16-methyl-13-oxa-2,17,21,25-tetraazapentacyclo [16.6.2.0^2,6.0^7,12.0^22,26]hexacosane-1(25),7,9,11,18(26), 19,21,23-octane-19-carbonitrile]

hygroscopicity characteristic ([1]; listed as example 1): not hygroscopic
weight change with increasing humidity (DVS) ([1]; listed as example 1): approximately 0.1%
Sample purity (%) ([2]; High humidity (90%±5% RH, 25±2° C.), open, day 5, listed as example 1): 98.8%
Sample purity (%) ([2]; High humidity (90%±5% RH, 25±2° C.), open, day 10, listed as example 1): 98.8%
Sample purity (%) ([2]; High humidity (90%±5% RH, 25±2° C.), open, day 30, listed as example 1): 98.8%
Sample purity (%) ([2]; High temperature (60±2° C.), open, day 5, listed as example 1): 99.0%
Sample purity (%) ([2]; High temperature (60±2° C.), open, day 10, listed as example 1): 98.9%
Sample purity (%) ([2]; High temperature (60±2° C.), open, day 30, listed as example 1): 98.9%
Sample purity (%) ([2]; Light (4500±500 Lx), open, day 5, listed as example 1): 98.9%
Sample purity (%) ([2]; Light (4500±500 Lx), open, day 10, listed as example 1): 98.8%
Sample purity (%) ([2]; Light (4500±500 Lx), open, day 30, listed as example 1): 98.6%
Sample purity (%) ([2]; day 0, listed as example 1): 98.8%
crystal form by XRPD ([3]; month 1): Same as initial crystal form
crystal form by XRPD ([3]; month 2): Same as initial crystal form
crystal form by XRPD ([3]; month 3): Same as initial crystal form
crystal form by XRPD ([3]; month 6): Same as initial crystal form
AUC(0-t) [4]: 5340 ± 1070 ng·h/mL
Tmax [4]: 1.3 ± 0.58 h
half-life [4]: 19 ± 3.9 h
Cmax ([4]; read-out: C0/Cmax): 729 ± 208 ng/mL
Compound: C[C@@H]1CCOc2ccc(F)cc2[C@H]2CCCN2c2ccc3ncc(C#N)c(c3n2)N1 [Example 1, (6R,16R)-9-fluoro-16-methyl-13-oxa-2,17,21,25-tetraazapentacyclo [16.6.2.0^2,6.0^7,12.0^22,26]hexacosane-1(25),7,9,11,18(26), 19,21,23-octane-19-carbonitrile]
change of purity / impurity content during the experimental period (in words) ([2]; listed as example 1): increased slightly under the light condition only
